Data as given in patent US7087248B2, “Pharmaceutical component based on human parathyroid hormone and a pharmaceutical composition for intranasal administration comprising the component” (Daiichi Asubio Pharma Co., Ltd., priority 2000, dated 2006).

System: nasal cavity
Assay: Sensory test (1): odor and irritation evoked by nasal spraying
Method: As the control, physiological saline was used.
Then, aqueous solutions of various organic acids were prepared, in order to identify the factors responsible for the odor and irritation the preparation evokes when it is applied in the nasal cavity. The organic acid employed included acetic acid, citric acid and tartaric acid; oxalic acid; malic acid; phthalic acid; ascorbic acid; adipic acid; and glycolic acid.
Prepared were 0.1 v/v %, 0.2 v/v %, 0.3 v/v % and 0.6 v/v % aqueous solutions of acetic acid, and 0.6 w/v % aqueous solutions of citric acid, tartaric acid, oxalic acid, malic acid, phthalic acid, ascorbic acid, adipic acid, and glycolic acid. The solution was sprayed into the nasal cavity; and the odor and irritation were assessed in the same manner as above (testers consisting of four healthy normal adult males).
In the same manner as above, the test solution was applied in the nasal cavity, and the odor and irritation evoked thereby were assessed (testers consisting of 12 healthy normal adult males).

[1] = 0.6 w/v % aqueous solution sprayed into the nasal cavity, four healthy normal adult males

SMILES	Irritability [1]	Irritability (in vivo)
O=C1O[C@H]([C@@H](O)CO)C(O)=C1O [Ascorbic acid]	the same with that from physiological saline and +	–
O=C(O)CO [Glycolic acid]	the same with that from physiological saline and +	–
O=C(O)CC(O)C(=O)O (stereo not drawn) [Malic acid]	++++	–
O=C(O)C(=O)O [Oxalic acid]	++++	–
O=C(O)c1ccccc1C(=O)O [Phthalic acid]	–	+++
O=C(O)C(O)C(O)C(=O)O (stereo not drawn) [Tartaric acid]	–	++++
